# Experimental data: patent US20080039455A1, “PYRAZOLOPYRIMIDINES AND SALTS THEREOF, PHARMACEUTICAL COMPOSITIONS COMPRISING SAME, METHODS OF PREPARING SAME AND USES OF SAME” (priority 2006, published 2008)
# Target: T1, human recombinant ALK1 (GST fused to ALK1 intracellular domain [His142-Gln503]) (Homo sapiens, UniProt P37023)
# T1 construct: GST fused to ALK1 intracellular domain [His142-Gln503]; made in house
# T1 sequence (P37023 142-503): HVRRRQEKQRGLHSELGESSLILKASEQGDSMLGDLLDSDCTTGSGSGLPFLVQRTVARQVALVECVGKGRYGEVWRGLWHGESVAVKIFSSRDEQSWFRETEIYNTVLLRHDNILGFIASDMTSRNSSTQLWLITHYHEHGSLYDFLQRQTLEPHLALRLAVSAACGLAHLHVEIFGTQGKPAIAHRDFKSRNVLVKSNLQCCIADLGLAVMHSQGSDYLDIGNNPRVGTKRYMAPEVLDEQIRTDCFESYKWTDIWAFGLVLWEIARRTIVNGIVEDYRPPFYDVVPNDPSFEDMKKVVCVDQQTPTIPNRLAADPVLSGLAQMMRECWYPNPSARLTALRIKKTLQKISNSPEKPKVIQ
# Experiment: ALK1-Kinase Flashplate-Assay
# Type: biochemical
# Conditions: 0.5 μM ATP, biotinylated α-casein substrate; read-out: Assay 1 (ALK1-Kinase Flashplate-Assay IC50 class)
# Text: Biological Assay 1: ALK1-Kinase Flashplate-Assay
# ALK1 phosphorylates serine/threonine residues of the biotinylated substrate bovine α-casein in the presence of [γ-^33P]ATP. Detection of the radiolabeled phosphorylated product is achieved by binding to streptavidine-coated Flashplates. The biotin moieties of biotinylated casein bind with high affinity to the streptavidine. The radiolabeled biotinylated casein produced by the ALK1 kinase reaction is able to generate a […] signal when strepatavidine-mediated binding occurs to the scintillant-containing surface of the Flashplates due to the close proximity of the radiolabel and the scintillant. […] The signals obtained are therefore indicative of the ALK1 kinase activity. Measurement is performed in a Perkin-Elmer TopCount or Perkin-Elmer ViewLux instrument.
# Enzyme: Purified human recombinant ALK1 (GST fused to ALK1 intracellular domain [His142-Gln503]) produced in-house, aliquots stored at −80° C.;
# Diluted enzyme working solution: 2.5 ng/μl ALK1 (in assay buffer) freshly prepared and chilled on ice until use.
# Substrate: biotinylated bovine α-casein. Unbiotinylated casein obtained from Sigma was biotinylated by standard procedures using N-hydroxysuccinimide (NHS) ester of biotin.
# Substrate working solution: 0.83 μM ATP, 1.67 μM biotinylated a-casein, 7.4 nCi [γ-^33P]ATP/μl in assay buffer
# Assay plates: 384-well plates, small volume, white, Greiner (# 784075)
# Flashplates: Streptavidin-coated Flashplates, Perkin Elmer (384-well # SPM410A)
# Assay buffer: 50 mM Tris/HCl pH 8.0, 1 mM MnCl2, 1 mM DTT, 0.01% NP40, 0.5× Complete EDTA-free
# Stop solution: 33.3 μM ATP, 33.3 mM EDTA, 0.07% Triton X-100 in PBS
# Saturating buffer for Flashplates: 100 μM ATP, 0.2% Triton X-100 in PBS
# Sealing tape: Greiner (# 676080)
# Protocol for small volume 5 μl assay (all steps are performed at 20° C., pipetted with CyBi-Well and Multidrop Micro): • 1. 50 nl or 250 nl compound in 100% DMSO • 2. addition of 3 μl substrate working solution with CyBi-Well pipettor • 3. addition of 2 μl enzyme working solution with Multidrop Micro incubation for 60 min at room temperature • 4. addition of 15 μl Stop solution with CyBi-Well pipettor • 5. transfer of 18 μl assay mixture to Flashplates** with CyBi-Well pipettor incubation for at least 3 h at room temperature or over night at 4° C. to allow binding to the streptavidine-coated Flashplates • 6. washing the Flashplates 3 times with 50 μl PBS without Ca++ and Mg++ • 7. sealing with sealing tape • 8. Measurement in Topcount (60 sec/well) **Saturation of Flashplates: The Flashplates are preincubated for at least 1 hour with 50 μl saturating buffer. Remove 18 μl from the 50 μl and transfer 18 μl of the assay mixture to the Flashplate.
# Final concentrations, calculated for 5 μl reaction volume: ALK1 5 ng/well; 1 μM biotinylated α-casein; 0.5 μM ATP; 22 nCi/well [γ-^33P]ATP; 1 mM MnCl2; 1 mM DTT; 50 mM Tris-HCl; pH 8.0; 0.01% NP40; 0.5× Complete EDTA-free; 1% or 5% DMSO.
# The data were normalised (enzyme reaction without inhibitor=0% inhibition, enzyme reaction in the presence of 10 mM EDTA=100% inhibition) and IC50 values were calculated by a 4 parameter fit using an in-house software.
row,Compound,IC50 [nM]
1,"COc1ccc(-c2cnn3ccc(Nc4ccc(O)cc4)nc23)cc1 [Example 146, 4-[3-(4-Methoxy-phenyl)-pyrazolo[1,5-a]pyrimidin-5-ylamino]-phenol]",1000 to 10000
2,"NC(=O)c1cccc(-c2cnn3ccc(NC4CCC(O)CC4)nc23)c1 (stereo not shown) [Example 220, 3-[5-(4-Hydroxy-cyclohexylamino)-pyrazolo[1,5-a]pyrimidin-3-yl]-benzamide]",1000 to 10000
3,"Oc1cccc(-c2cnn3ccc(Nc4cccc(Cl)c4)nc23)c1 [Example 311, 3-[5-(3-Chloro-phenylamino)-pyrazolo[1,5-a]pyrimidin-3-yl]-phenol]",1000 to 10000
4,"O=C(O)/C=C/c1cccc(-c2cnn3ccc(NC4CCC(O)CC4)nc23)c1 (stereo not shown) [Example 157, (E)-3-{3-[5-(4-Hydroxy-cyclohexylamino)-pyrazolo[1,5-a]pyrimidin-3-yl]-phenyl}-acrylic acid]",1000 to 10000
5,Cc1ccc(Nc2ccn3ncc(-c4cccc(N)c4)c3n2)cc1NS(C)(=O)=O [Example 186],1000 to 10000
6,"c1cc(N2CCOCC2)ccc1Nc1ccn2ncc(-c3ccc4c(c3)OCO4)c2n1 [Example 472, (3-Benzo[1,3]dioxol-5-yl-pyrazolo[1,5-a]pyrimidin-5-yl)-(4-morpholin-4-yl-phenyl)-amine]",1000 to 10000
7,"Fc1ccc(-c2cnn3ccc(NCc4cccnc4)nc23)cc1Cl [Example 379, [3-(3-Chloro-4-fluoro-phenyl)-pyrazolo[1,5-a]pyrimidin-5-yl]-pyridin-3-ylmethyl-amine]",1000 to 10000
8,"COc1cccc(-c2cnn3ccc(Nc4ccc(N5CCOCC5)cc4)nc23)c1 [Example 233, [3-(3-Methoxy-phenyl)-pyrazolo[1,5-a]pyrimidin-5-yl]-(4-morpholin-4-yl-phenyl)-amine]",1000 to 10000
9,"c1ccc(Cn2cc(-c3cnn4ccc(NCc5ccncc5)nc34)cn2)cc1 [Example 219, [3-(1-Benzyl-1H-pyrazol-4-yl)-pyrazolo[1,5-a]pyrimidin-5-yl]-pyridin-4-ylmethyl-amine]",1000 to 10000
10,"CCN(CC)CCCNc1ccn2ncc(-c3cccc(Cl)c3)c2n1 [Example 486, N′-[3-(3-chloro-phenyl)-pyrazolo[1,5-a]pyrimidin-5-yl]-N,N-diethyl-propane-1,3-diamine]",1000 to 10000
11,"c1csc(-c2cnn3ccc(NC4CCCCC4)nc23)c1 [Example 494, Cyclohexyl-(3-thiophen-2-yl-pyrazolo[1,5-a]pyrimidin-5-yl)-amine]",1000 to 10000
12,"COc1ccc(-c2cnn3ccc(NCc4cccnc4)nc23)cc1OC [Example 292, [3-(3,4-Dimethoxy-phenyl)-pyrazolo[1,5-a]pyrimidin-5-yl]-pyridin-3-ylmethyl-amine]",1000 to 10000
13,"Oc1ccc(-c2cnn3ccc(Nc4ccc5[nH]ccc5c4)nc23)cc1 [Example 18, 4-[5-(1H-Indol-5-ylamino)-pyrazolo[1,5-a]pyrimidin-3-yl]-phenol]",1000 to 10000
14,"COc1ccc(-c2cnn3ccc(NC4CCC(O)CC4)nc23)cc1 (stereo not shown) [Example 155, 4-[3-(4-Methoxy-phenyl)-pyrazolo[1,5-a]pyrimidin-5-ylamino]-cyclohexanol]",1000 to 10000
15,"Cn1cc(-c2cnn3ccc(NCc4cccnc4)nc23)cn1 [Example 230, [3-(1-Methyl-1H-pyrazol-4-yl)-pyrazolo[1,5-a]pyrimidin-5-yl]-pyridin-3-ylmethyl-amine]",1000 to 10000
16,"OC1CCC(Nc2ccn3ncc(-c4ccc(F)c(Cl)c4)c3n2)CC1 (stereo not shown) [Example 373, 4-[3-(3-Chloro-4-fluoro-phenyl)-pyrazolo[1,5-a]pyrimidin-5-ylamino]-cyclohexanol]",1000 to 10000
17,"COc1ccc(-c2cnn3ccc(NCc4ccncc4)nc23)cc1 [Example 154, [3-(4-Methoxy-phenyl)-pyrazolo[1,5-a]pyrimidin-5-yl]-pyridin-4-ylmethyl-amine]",1000 to 10000
18,"Nc1cccc(-c2cnn3ccc(Nc4ccc(O)cc4)nc23)c1 [Example 338, 4-[3-(3-Amino-phenyl)-pyrazolo[1,5-a]pyrimidin-5-ylamino]-phenol]",1000 to 10000
19,"c1ccc(Nc2ccn3ncc(-c4ccsc4)c3n2)cc1 [Example 280, Phenyl-(3-thiophen-3-yl-pyrazolo[1,5-a]pyrimidin-5-yl)-amine]",1000 to 10000
20,"Oc1ccc(-c2cnn3ccc(Nc4ccccc4)nc23)cc1 [Example 282, 4-(5-Phenylamino-pyrazolo[1,5-a]pyrimidin-3-yl)-phenol]",1000 to 10000
21,"COc1cccc(-c2cnn3ccc(Nc4cc(OC)c(OC)c(OC)c4)nc23)c1 [Example 178, [3-(3-Methoxy-phenyl)-pyrazolo[1,5-a]pyrimidin-5-yl]-(3,4,5-trimethoxy-phenyl)-amine]",1000 to 10000

# Second part, the compound after the results:
row,IC50 [nM],Compound
1,1000 to 10000,"COc1ccc(Nc2ccn3ncc(-c4cccc(N(C)C)c4)c3n2)cn1 [Example 332, [3-(3-Dimethylamino-phenyl)-pyrazolo[1,5-a]pyrimidin-5-yl]-(6-methoxy-pyridin-3-yl)-amine]"
2,< 1000,"c1ccc2sc(-c3cnn4ccc(NCc5ccncc5)nc34)cc2c1 [Example 64, (3-Benzo[b]thiophen-2-yl-pyrazolo[1,5-a]pyrimidin-5-yl)-pyridin-4-ylmethyl-amine]"
3,< 1000,"COc1cncc(-c2cnn3ccc(Nc4ccc(O)cc4)nc23)c1 [Example 87, 4-[3-(5-Methoxy-pyridin-3-yl)-pyrazolo[1,5-a]pyrimidin-5-ylamino]-phenol]"
4,< 1000,"COc1cc(-c2cnn3ccc(Nc4ccc(C(C)C)cc4)nc23)cc(OC)c1OC [Example 97, (4-Isopropyl-phenyl)-[3-(3,4,5-trimethoxy-phenyl)-pyrazolo[1,5-a]pyrimidin-5-yl]-amine]"
5,< 1000,"COc1cccc(-c2cnn3ccc(Nc4ccc(OC)nc4)nc23)c1 [Example 196, [3-(3-Methoxy-phenyl)-pyrazolo[1,5-a]pyrimidin-5-yl]-(6-methoxy-pyridin-3-yl)-amine]"
6,< 1000,"COc1cc(-c2cnn3ccc(NCc4ccncc4)nc23)cc(OC)c1OC [Example 418, Pyridin-4-ylmethyl-[3-(3,4,5-trimethoxy-phenyl)-pyrazolo[1,5-a]pyrimidin-5-yl]-amine]"
7,< 1000,"COc1cc(Nc2ccn3ncc(-c4cc(OC)c(OC)c(OC)c4)c3n2)cc(OC)c1OC [Example 77, (3,4,5-Trimethoxy-phenyl)-[3-(3,4,5-trimethoxy-phenyl)-pyrazolo[1,5-a]pyrimidin-5-yl]-amine]"
8,< 1000,"COc1ccc(-c2cnn3ccc(Nc4ccc(NS(=O)(=O)c5ccc(C)cc5)cc4)nc23)cc1OC [Example 56, N-{4-[3-(3,4-Dimethoxy-phenyl)-pyrazolo[1,5-a]pyrimidin-5-ylamino]-phenyl}-4-methyl-benzenesulfonamide]"
9,< 1000,"Cc1ccc(S(=O)(=O)Nc2ccc(Nc3ccn4ncc(-c5cccnc5)c4n3)cc2)cc1 [Example 52, 4-Methyl-N-[4-(3-pyridin-3-yl-pyrazolo[1,5-a]pyrimidin-5-ylamino)-phenyl]-benzenesulfonamide]"
10,< 1000,"OCc1cccc(-c2cnn3ccc(Nc4ccccc4)nc23)c1 [Example 272, [3-(5-Phenylamino-pyrazolo[1,5-a]pyrimidin-3-yl)-phenyl]-methanol]"
